Test results taken from patent US9446015B2, “Quinone based nitric oxide donating compounds for ophthalmic use” (NICOX SCIENCE IRELAND, priority 2012, dated 2016).
Like-named read-outs stand apart in the source and are kept apart here.

Legend:
[1] = test system: hypertonic saline-induced IOP increase in rabbits; assay: IOP lowering activity in hypertonic saline-induced IOP increase in rabbits; format: in vivo, New Zealand White rabbits
Text: Intraocular pressure (IOP) lowering activity in hypertonic saline-induced IOP increase in rabbits.
This animal model of elevated IOP was used for assessing the intraocular pressure (IOP) lowering activities of some compounds of the invention, timolol, dorzolamide and 5-isosorbide mononitrate.
• compounds (6), (20) and (25) • timolol and dorzolamide that are drugs commonly used for the treatment of glaucoma and ocular hypertension. • Isosorbide mononitrate (5-ISMN) that is a commonly used nitric oxide donor drug.
(§1) Timolol, dorzolamide and 5-ISMN were tested as reference compounds. Adults male New Zealand White rabbits weighting 1.8-2.0 Kg were used in the experiments.
IOP was measured using a Tono-Pen XL prior to hypertonic saline injection (basal) and at 30, 60, 120 and 240 min thereafter. Vehicle (5% cremophor-EL; 0.3% DMSO; 0.2 mg/ml BAK in PBS pH 6.0) and all the tested compounds dissolved in the vehicle were instilled as eye drops immediately after hypertonic saline injection. Eyes were randomly assigned to different treatment groups. Vehicle and the tested compounds were directly instilled into the conjunctiva pocket at the desired doses. One drop of 0.4% oxybuprocaine hydrochloride (Novesine, Sandoz) was instilled in each eye immediately before each set of pressure measurements.
Results are reported in Table 6, the ocular hypotensive activities of the tested compounds are expressed as IOP change at 60 and 120 minutes after topical administration versus vehicle and versus the basal IOP.

[2] = test system: lipidic peroxidation of membrane lipids in rat hepatocytes (hepatic microsomal membranes); assay: In vitro antioxidant activity (TBARS test); format: biochemical; conditions: read-out: Antioxidant activity IC50 μM (CL 95%)
Procedure: The antioxidant properties of compounds (6) (disclosed in example 1) and compound (23) (disclosed in example 19) and reference antioxidant compounds were assessed after NADPH-induced lipidic peroxidation of membrane lipids in rat hepatocytes using the detection of 2-thiobarbituric acid reactive substances (TBARS) by visible spectroscopy.
Hepatic microsomal membranes from male Wistar rats (200-250 g) were prepared by differential centrifugation (8000 g, 20 min; 120000 g, 1 h) in a HEPES/sucrose buffer (10 mM, 250 mM, pH 7.4) and stored at −80° C. Incubation was performed at 37° C. in a Tris-HCl/KCl (100 mM/150 mM, pH 7.4) containing microsomal membranes (2 mg prot/mL), sodium ascorbate (100 μM), and DMSO solutions of the tested compounds. Lipid peroxidation was initiated by adding ADP-FeCl3 and NADPH (Method A) or 2.5 μM FeSO4 (Method B) (as described by Boschi D. et al., J. Med. Chem. 2006, 49:2886-2897). Aliquots were taken from the incubation mixture at 5, 15, and 30 min and treated with trichloroacetic acid (TCA) 10% w/v. Lipid peroxidation was assessed by spectrophotometric (543 nm) determination of the TBARS consisting mainly of malondialdehyde (MDA). TBARS concentrations (expressed in nmol/mg protein) were obtained by interpolation with a MDA standard curve. The antioxidant activity of tested compounds was evaluated as the percent inhibition of TBARS production with respect to control samples, using the values obtained after 30 min of incubation. IC50 values were calculated by nonlinear regression analysis.

[3] = test system: lipidic peroxidation of membrane lipids in rat hepatocytes (hepatic microsomal membranes); conditions: Method B; from Chegaev et al.; read-out: Antioxidant activity IC50 μM (CL 95%); cited from earlier work
[4] = test system: ocular normotensive New Zealand rabbits; assay: IOP lowering activity in ocular normotensive New Zealand rabbits; format: in vivo, New Zealand White rabbits
Procedure: Intraocular pressure (IOP) lowering activity in ocular normotensive New Zealand rabbits.
• compound (6) • timolol that is a drug commonly used for the treatment of glaucoma and ocular hypertension. • Isosorbide mononitrate (5-ISMN) that is a commonly used nitric oxide donor drug.
as §1
IOP was measured using a pneumatonometer 30 CLASSIC™ before topical application (basal) and a different time point (30, 60, 120, 240 and 300 min) thereafter. Vehicle (5% cremophor-EL; 0.3% DMSO; 0.2 mg/ml BAK in PBS pH 6.0) or tested compounds dissolved in the vehicle were instilled as eye drops into the conjunctiva pocket. Eyes were randomly assigned to different treatment groups. One drop of 0.4% oxybuprocaine hydrochloride (Novesine, Sandoz) was instilled in each eye immediately before each set of pressure measurements.
The test results are reported in Table 7, the ocular hypotensive activity is expressed as IOP changes at 30, 60, 120 and 300 minutes after topical administration versus vehicle and versus IOP at basal.

[5] = test system: isolated aortas from rats; assay: Ex vivo tolerance evaluation, vascular response of isolated rat aortas; format: cell-based; conditions: for EC50 at 30 mg/kg: Rattus norvegicus, read-out: EC50 (μM), vascular response to 5-ISMN
Procedure: (§2) Thoracic aortas from male New Zealand rabbits or male Sprague Dawley (SD) were used. The aortas were placed immediately in Krebs-HEPES buffer (pH 7.4; composition mM: NaCl 130.0, KCl 3.7, NaHCO3 14.9, KH2PO4 1.2, MgSO4.7H2O 1.2, Glucose 11.0, HEPES 10.0, CaCl2.2H2O 1.6). Connective tissue was removed and aortas were cut into ring segments (4-5 mm in length). Each ring was placed in a 5 mL tissue bath filled with Krebs-HEPES buffer (37° C.) aerated with 95% O2 and 5% CO2 and was attached to a force transducer (Grass FT03), connected to a BIOPAC MP150 System for measurement of the isometric tension. Preparations were allowed to equilibrate for 1 h at a resting tension of 2 g for rabbit aortas and 1 g for rat aortas with changes of the buffer every 15 min. Then the rings were stimulated by exposure to 90 mM KCl (3 times) with intervening washings.
(§3) Rat aorta. After equilibration, rat aortas were precontracted with KCl (90 mM) and, when the contraction was stable, a cumulative concentration-response curve to acetylcholine (ACh, 0.01-100 μM) was added. After washout, the rings were precontracted again with KCl (90 mM). When a steady-state level of contraction was obtained, a cumulative concentration-response curve to the tested compounds (0.01-100 μM) was obtained.
(§4) Data analysis. Results are given as mean±SEM. Vascular responses are expressed as percentage relaxation and plotted vs concentration. The sensitivity of isolated aorta to different vasodilators is expressed as the concentration that elicited 50% of the maximal responses (EC50). Responses are quantified in terms of EC50 and Emax (maximal vasodilating effect) values, obtained from the concentration-response curve by nonlinear curve fitting, using GraphPad software.
Tolerance to nitrate was further investigated assessing the vascular effects of Compound (6) following repeated treatment compared with 5-ISMN. The vascular response to the compound itself was assessed on isolated aortas from rats orally treated for 5 days with Compound (6) (100 mg/kg). The vascular response was performed as described in Example 6.
Vascular responses were performed 1 h (ISMN) or 3 h (Compound (6)) after the last administration, the concentrations of tested compound that elicited the 50% of the maximal responses (EC50) are shown in Table 4.

[6] = test system: rat L-NAME-induced hypertension; assay: In vivo tolerance evaluation, L-NAME-induced hypertension after 5-day oral treatment; conditions: 5-ISMN 30 mg/kg; for Delta vs basal (mmHg): peak effect 1 hour
Procedure: (§5) Fasted male SD rats (250-300 g, n=3-5 per group), obtained from Harlan Italy (Correzzana, Milan, Italy) were orally treated with tested compounds or vehicle (DMSO:Methocel 1% 2/98 v/v) in a total volume of 4 ml/kg by gavage. At each time point (1, 3, 6 and 24 h) animals were deeply anesthetized with Zoletil® 100 (3 mg/kg), given intramuscularly. Thereafter, a pressure catheter (Samba Sensors, Harvard Apparatus, UK) was introduced into the common carotid artery for central blood pressure measurement. Pressure transducer was connected to a personal computer, in order to allow real time monitor of the pressure tracing. After 10 minutes of basal recording, L-NAME (50 mg/kg) was administered intraperitoneally and the effect on SBP monitored. When the SBP stabilized (5 minutes without variations) the recording was stopped. To further confirm that functional activity was NO-dependent, at each time point blood ^15N-nitrite levels were measured following the procedure described in Example 12.
To investigate whether the compound (6) induced nitrate tolerance, as observed for most of the drugs belonging to the nitrate class, the L-NAME-induced hypertension rat model described in Example 7 was performed following a repeated oral treatment. Rats were orally treated for 5 days with vehicle, compound (6) (100 mg/kg) or 5-ISMN (30 mg/kg). […] The experiments were performed at the peak effect (1 hour for 5-ISMN and 3 hours for Compound (6)), results are reported in Table 3.

[7] = test system: rat L-NAME-induced hypertension; assay: Systolic blood pressure in rat L-NAME-induced hypertension, single oral dose; format: in vivo; conditions: for Delta vs basal (mmHg), systolic blood pressure: 5-ISMN 30 mg/kg oral
Procedure: To assess the in vivo NO-dependent activity, Compound (6) was evaluated for systolic blood pressure (SBP) reduction efficacy in a rat model of NO-deprivation induced by L-NAME and compared with 5-ISMN.
as §5

[8] = test system: endothelial-dependent vasodilation of rat aortas; assay: Endothelial dysfunction evaluation, vascular response to acetylcholine; format: cell-based; conditions: 5-ISMN 30 mg/kg; for Emax at 30 mg/kg: Rattus norvegicus, read-out: % relaxation (Emax), response to acetylcholine
Procedure: as §2, §3, §4
Endothelial-dependent vasodilation (vascular response to acetylcholine, ACh) was assessed following 5-day treatment with Compound (6) (100 mg/kg) or 5-ISMN (30 mg/kg). A relaxant response to ACh indicated the presence of a functional endothelium. The vascular response was performed as described in Example 6.

[9] = 60 min after topical administration
[10] = 120 min after topical administration
[11] = 30 min after topical administration
[12] = 300 min after topical administration
[13] = Method A (ADP-FeCl3 and NADPH), inhibition of TBARS production after 30 min

SMILES: CC1=C(CCCOCCCO[N+](=O)[O-])C(=O)c2ccccc2C1=O [Compound (25), 3-(3-(3-methyl-1,4-dioxo-1,4-dihydronaphthalen-2-yl)propoxy)propyl nitrate]
- ΔΔ (mmHg), IOP change versus vehicle and versus basal IOP [1, 9]: −11.5 ± 2.8 mmHg
- ΔΔ (mmHg), IOP change versus vehicle and versus basal IOP [1, 10]: −10.2 ± 1.3 mmHg

SMILES: O=C(O)/C=C/c1ccc(O)c(O)c1 [Caffeic acid]
- IC50 ([2]; Method B (2.5 μM FeSO4)): 33 µM

SMILES: CC1=NN(c2ccccc2)C(=O)C1 [Edavarone]
- IC50 [3]: 17 µM

SMILES: O=[N+]([O-])O[C@@H]1CO[C@H]2[C@@H]1OC[C@@H]2O [Compound 5-ISMN, isosorbide-5-mononitrate]
- ΔΔ (mmHg), IOP change versus vehicle and versus IOP at basal [4, 11]: −1.5 ± 0.3 mmHg
- ΔΔ (mmHg), IOP change versus vehicle and versus IOP at basal [4, 9]: −1.7 ± 0.4 mmHg
- ΔΔ (mmHg), IOP change versus vehicle and versus IOP at basal [4, 10]: −0.6 ± 0.4 mmHg
- ΔΔ (mmHg), IOP change versus vehicle and versus IOP at basal [4, 12]: −0.8 ± 0.4 mmHg
- vascular sensitivity of aortas of treated animals to the compound itself versus vehicle/control arteries ([5]; 5-day oral treatment, 5-ISMN 30 mg/kg, Compound (6) 100 mg/kg): showed a reduced vascular response
- EC50 at 30 mg/kg ([5]; 1 h): 20 ± 0.6 µM
- EC50 at 30 mg/kg [5]: 127 ± 48 µM
- ΔΔ (mmHg), IOP change versus vehicle and versus basal IOP [1, 9]: −0.7 ± 2.9 mmHg
- ΔΔ (mmHg), IOP change versus vehicle and versus basal IOP [1, 10]: −6.6 ± 1.8 mmHg
- efficacy in preventing L-NAME-induced hypertension after 5-day oral treatment ([6]; compound (6) 100 mg/kg): did not maintain its efficacy
- Delta vs basal (mmHg) ([6]; acute): 10.5 ± 6.1 mmHg
- Delta vs basal (mmHg) ([6]; repeated (5 days oral)): 88 ± 11.5 mmHg
- Delta vs basal (mmHg), systolic blood pressure ([7]; 1 hour): 10.5 ± 6.1 mmHg
- Delta vs basal (mmHg), systolic blood pressure ([7]; 3 hours): 6.5 ± 2.4 mmHg
- Delta vs basal (mmHg), systolic blood pressure ([7]; 6 hours): 51.2 ± 5.7 mmHg
- Delta vs basal (mmHg), systolic blood pressure ([7]; 24 hours): 83 ± 9 mmHg
- time over which L-NAME induced hypertension was counteracted after treatment ([7]; single oral administration, 5-ISMN 30 mg/kg, Compound (6) 100 mg/kg): 3 h
- effect on endothelial-dependent vasorelaxation (response to ACh) ([8]; 5-day treatment, Compound (6) 100 mg/kg): caused a reduced response to Ach
- Emax at 30 mg/kg ([8]; 120 h, repeated (5-day treatment)): 78.2 ± 9.2%
- Emax at 30 mg/kg ([8]; acute): 92.7 ± 4.3%

SMILES: COC1=C(OC)C(=O)C(CCCCCCCCCCO)=C(C)C1=O [Idebenone]
- IC50 [2, 13]: 1.6 µM

SMILES: CC(C)(C)NC[C@H](O)COc1nsnc1N1CCOCC1 [Timolol, timolol]
- ΔΔ (mmHg), IOP change versus vehicle and versus IOP at basal [4, 11]: −0.4 ± 0.4 mmHg
- ΔΔ (mmHg), IOP change versus vehicle and versus IOP at basal [4, 9]: −0.7 ± 0.4 mmHg
- ΔΔ (mmHg), IOP change versus vehicle and versus IOP at basal [4, 10]: −0.9 ± 0.4 mmHg
- ΔΔ (mmHg), IOP change versus vehicle and versus IOP at basal [4, 12]: −0.05 ± 0.4 mmHg
- ΔΔ (mmHg), IOP change versus vehicle and versus basal IOP [1, 9]: −5.7 ± 1.4 mmHg
- ΔΔ (mmHg), IOP change versus vehicle and versus basal IOP [1, 10]: −8.4 ± 1.2 mmHg

SMILES: CC1=C(CCCCCCO[N+](=O)[O-])C(=O)c2ccccc2C1=O [Compound (23), 6-(3-methyl-1,4-dioxo-1,4-dihydronaphthalen-2-yl) hexyl nitrate]
- IC50 [2, 13]: 1.4 µM

SMILES: COc1ccc2[nH]cc(CCNC(C)=O)c2c1 [Melatonin]
- IC50 [3]: 476 µM

SMILES: COC1=C(OC)C(=O)C(CCCOCCO[N+](=O)[O-])=C(C)C1=O [Compound (20), 2-(3-(4,5-dimethoxy-2-methyl-3,6-dioxocyclohexa-1,4-dienyl)propoxy)ethyl nitrate]
- ΔΔ (mmHg), IOP change versus vehicle and versus basal IOP [1, 9]: −18.9 ± 2.4 mmHg
- ΔΔ (mmHg), IOP change versus vehicle and versus basal IOP [1, 10]: −9.1 ± 1.6 mmHg

SMILES: CCN[C@H]1C[C@H](C)S(=O)(=O)c2sc(S(N)(=O)=O)cc21 [Dorzolamide, dorzolamide]
- ΔΔ (mmHg), IOP change versus vehicle and versus basal IOP [1, 9]: −6.9 ± 2.1 mmHg
- ΔΔ (mmHg), IOP change versus vehicle and versus basal IOP [1, 10]: −6.7 ± 1.7 mmHg
